According to ChEMBL document CHEMBL4602633, “Discovery of coumarin-based selective aldehyde dehydrogenase 1A1 inhibitors with glucose metabolism improving activity” (Eur J Med Chem, 2020):
Activity calls are given as the source filed them. The rule behind the calls is not given here.

Tests used:
[1] = target: T1, Aldehyde dehydrogenase 1A1 (Homo sapiens) (UniProt P00352); assay: Inhibition of N-terminal Met/His6-tagged recombinant human ALDH1A1 (Ser2-Ser501 residues) expressed in Escherichia coli cells at 10 uM using propionaldehyde as substrate preincubated for 15 mins followed by substrate addition by spectrophotometric method relative to control
T1 sequence (whole entry): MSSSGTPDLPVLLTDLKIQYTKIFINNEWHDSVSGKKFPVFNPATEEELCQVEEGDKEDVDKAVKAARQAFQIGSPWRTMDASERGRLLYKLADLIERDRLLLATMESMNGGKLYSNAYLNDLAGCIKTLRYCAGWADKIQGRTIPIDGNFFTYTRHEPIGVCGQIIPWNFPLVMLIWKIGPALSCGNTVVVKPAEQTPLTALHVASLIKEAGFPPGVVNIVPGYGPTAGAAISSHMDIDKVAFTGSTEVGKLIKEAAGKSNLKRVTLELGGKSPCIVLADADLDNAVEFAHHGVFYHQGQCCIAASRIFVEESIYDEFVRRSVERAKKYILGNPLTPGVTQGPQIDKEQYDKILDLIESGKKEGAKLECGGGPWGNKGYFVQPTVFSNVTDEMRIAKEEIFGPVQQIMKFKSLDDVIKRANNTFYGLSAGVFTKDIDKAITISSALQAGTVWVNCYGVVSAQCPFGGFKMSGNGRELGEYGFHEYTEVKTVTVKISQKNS

[2] = Clearance in […] plasma at 2.5 mg/kg, iv measured over 6 hrs by LC-MS/MS analysis; type: ADME, organism-based
[3] = Half life in […] plasma at 25 mg/kg, po measured over 12 hrs by LC-MS/MS analysis; type: ADME, organism-based
[4] = target: T2, Aldehyde dehydrogenase, mitochondrial (Homo sapiens) (UniProt P05091); assay: Inhibition of recombinant human ALDH2 at 10 uM using propionaldehyde as substrate preincubated for 15 mins followed by substrate addition by spectrophotometric method relative to control
T2 sequence (whole entry): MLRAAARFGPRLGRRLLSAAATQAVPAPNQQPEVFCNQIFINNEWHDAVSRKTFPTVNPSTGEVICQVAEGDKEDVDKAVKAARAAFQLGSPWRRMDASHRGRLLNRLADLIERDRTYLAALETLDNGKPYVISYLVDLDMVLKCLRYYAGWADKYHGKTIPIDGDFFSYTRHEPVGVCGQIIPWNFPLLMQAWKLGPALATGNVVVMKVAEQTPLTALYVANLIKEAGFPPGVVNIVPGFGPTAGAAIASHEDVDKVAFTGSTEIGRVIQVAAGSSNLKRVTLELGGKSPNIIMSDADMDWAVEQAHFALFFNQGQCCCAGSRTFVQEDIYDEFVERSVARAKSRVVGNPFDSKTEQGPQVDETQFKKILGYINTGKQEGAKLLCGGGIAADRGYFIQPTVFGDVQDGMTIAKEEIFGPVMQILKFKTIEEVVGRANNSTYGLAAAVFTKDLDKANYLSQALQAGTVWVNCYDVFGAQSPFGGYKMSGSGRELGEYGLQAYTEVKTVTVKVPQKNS

[5] = AUC in […] plasma at 25 mg/kg, po measured over 12 hrs by LC-MS/MS analysis; type: ADME, organism-based; set-up: time < 12 hr, dose 25 mg/kg, route oral
[6] = Cmax in […] plasma at 25 mg/kg, po measured over 12 hrs by LC-MS/MS analysis; type: ADME, organism-based; set-up: dose 25 mg/kg, route oral
[7] = Half life in human liver microsomes at 2 ug/ml preincubated for 5 mins followed by NADPH addition and measured up to 45 mins by LC-MS/MS analysis; type: ADME, Microsome
[8] = AUC in […] plasma at 2.5 mg/kg, iv measured over 6 hrs by LC-MS/MS analysis; type: ADME, organism-based; set-up: time < 6 hr, dose 2.5 mg/kg, route intravenous
[9] = Volume of distribution at steady state in […] plasma at 2.5 mg/kg, iv measured over 6 hrs by LC-MS/MS analysis; type: ADME, organism-based; conditions: read-out: Vdss
[10] = Oral bioavailability in […] at 25 mg/kg measured over 12 hrs by LC-MS/MS analysis; type: ADME, organism-based; conditions: in vivo
[11] = target: T3, Aldehyde dehydrogenase, dimeric NADP-preferring (Homo sapiens) (UniProt P30838); assay: Inhibition of recombinant C-terminal His6-tagged human ALDH3A1 (Met1 to His453 residues) expressed in mammalian expression system at 10 uM using benzaldehyde as substrate preincubated for 15 mins followed by substrate addition by spectrophotometric method relative to control
T3 sequence (whole entry): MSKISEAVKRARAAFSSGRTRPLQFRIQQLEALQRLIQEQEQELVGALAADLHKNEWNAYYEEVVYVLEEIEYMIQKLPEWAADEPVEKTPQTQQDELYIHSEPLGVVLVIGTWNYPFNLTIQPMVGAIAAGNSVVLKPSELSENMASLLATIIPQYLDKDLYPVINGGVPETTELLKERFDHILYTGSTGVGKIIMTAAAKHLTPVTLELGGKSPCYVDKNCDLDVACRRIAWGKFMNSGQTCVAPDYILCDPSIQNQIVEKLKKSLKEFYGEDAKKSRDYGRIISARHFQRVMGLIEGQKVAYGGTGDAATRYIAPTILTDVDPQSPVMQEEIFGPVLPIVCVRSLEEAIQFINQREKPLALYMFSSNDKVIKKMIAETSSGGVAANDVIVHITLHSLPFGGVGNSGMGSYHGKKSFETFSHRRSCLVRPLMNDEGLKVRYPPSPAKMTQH

[12] = target: T4, Retinal dehydrogenase 2 (Homo sapiens) (UniProt O94788); assay: Inhibition of recombinant N-terminal His6-tagged human ALDH1A2 (Met1 to Ser518 residues) expressed in Escherichia coli at 10 uM using propionaldehyde as substrate preincubated for 15 mins followed by substrate addition by spectrophotometric method relative to control
T4 sequence (whole entry): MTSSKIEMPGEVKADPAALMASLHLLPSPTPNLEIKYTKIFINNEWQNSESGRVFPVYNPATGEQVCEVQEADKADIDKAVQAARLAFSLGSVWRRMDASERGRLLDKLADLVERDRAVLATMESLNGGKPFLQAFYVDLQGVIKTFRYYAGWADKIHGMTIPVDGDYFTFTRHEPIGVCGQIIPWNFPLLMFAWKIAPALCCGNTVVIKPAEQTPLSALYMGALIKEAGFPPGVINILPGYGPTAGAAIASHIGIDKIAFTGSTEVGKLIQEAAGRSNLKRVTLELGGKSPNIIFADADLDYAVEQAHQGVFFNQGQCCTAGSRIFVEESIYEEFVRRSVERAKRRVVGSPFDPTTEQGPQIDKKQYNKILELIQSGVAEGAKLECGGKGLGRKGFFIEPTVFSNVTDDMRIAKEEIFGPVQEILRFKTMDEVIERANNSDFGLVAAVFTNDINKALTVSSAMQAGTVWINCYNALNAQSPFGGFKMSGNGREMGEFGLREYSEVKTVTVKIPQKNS

[13] = target: T5, Retinaldehyde dehydrogenase 3 (Homo sapiens) (UniProt P47895); assay: Inhibition of recombinant N-terminal His6-tagged human ALDH1A3 (Met1 to Pro512 reisudes) expressed in Escherichia coli at 10 uM using propionaldehyde as substrate preincubated for 15 mins followed by substrate addition by spectrophotometric method relative to control
T5 sequence (whole entry): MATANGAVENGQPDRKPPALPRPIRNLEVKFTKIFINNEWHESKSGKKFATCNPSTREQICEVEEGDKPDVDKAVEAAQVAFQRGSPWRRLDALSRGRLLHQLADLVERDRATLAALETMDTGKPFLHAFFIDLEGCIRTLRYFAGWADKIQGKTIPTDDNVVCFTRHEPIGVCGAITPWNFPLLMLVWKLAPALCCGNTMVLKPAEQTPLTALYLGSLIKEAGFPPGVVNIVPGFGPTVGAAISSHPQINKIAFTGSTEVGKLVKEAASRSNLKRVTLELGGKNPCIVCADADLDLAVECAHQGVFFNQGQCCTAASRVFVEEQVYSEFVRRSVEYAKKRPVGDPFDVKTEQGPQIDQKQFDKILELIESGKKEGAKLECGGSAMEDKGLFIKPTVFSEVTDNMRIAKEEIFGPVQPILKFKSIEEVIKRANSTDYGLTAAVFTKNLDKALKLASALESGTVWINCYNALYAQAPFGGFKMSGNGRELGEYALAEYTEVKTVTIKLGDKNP

[14] = Half life in […] plasma at 2.5 mg/kg, iv measured over 6 hrs by LC-MS/MS analysis; type: ADME, organism-based
HepG2 = assay: Inhibition of palmitic acid-induced glucose consumption impairment in human HepG2 cells at 2 to 5 uM after 24 hrs; type: functional, cell-based
[15] = target: T6, Aldehyde dehydrogenase 1A1 (Homo sapiens, UniProt P00352); assay: Inhibition of N-terminal Met/His6-tagged recombinant human ALDH1A1 (Ser2-Ser501 residues) expressed in Escherichia coli cells using propionaldehyde as substrate preincubated for 15 mins followed by substrate addition by spectrophotometric method
T6 sequence (P00352 whole entry): T1 sequence (whole entry)

[16] = Cmax in […] plasma at 2.5 mg/kg, iv after 5 mins by LC-MS/MS analysis; type: ADME, organism-based; set-up: dose 2.5 mg/kg, route intravenous

inhibition [1]: 61.8%
clearance [2]: 26.8 mL/min/kg
half-life [3]: 108 min
inhibition [4]: 2.24%
AUC at 12 h [5]: 6470 ng·h/mL
Cmax [6]: 3320 ng/mL
half-life at 2 ug/ml [7]: 38.5 min
AUC at 6 h [8]: 1540 ng·h/mL
Vd [9]: 0.843 L/kg
bioavailability [10]: 41.9%
inhibition [11]: 1.89%
inhibition [12]: 2.13%
inhibition [13]: 2.59%
half-life [14]: 45.4 min
IC50 [15]: 3.87 µM
Cmax [16]: 2840 ng/mL
Structure (SMILES): CCN(C(=O)CCN1CCN(C(=O)c2ccco2)CC1)c1ccc2c(C)cc(=O)oc2c1
inhibition (HepG2): Active
